Data reported in patent US9340559B2, “Proteasome inhibitor delanzomib for use in the treatment of lupus” (Cephalon, Inc., priority 2011, dated 2016).

Tests used:
Format in all cases: in vivo, mouse
NZM mice [1] = assay: Renal histopathology scoring (kidney IC-GN), NZM mice (Example 2)
Procedure: For histological analyses, the left kidney from each animal is removed and fixed in 10% buffered neutral formalin (EMD) for 48 hours on an orbital rocker at 25° C., then washed overnight with running dH2O and stored in 70% ethanol at 4° C. until ready to be processed. Kidney stains used for histological analyses included hematoxylin and eosin (H&E), Periodic Acid Schiff (PAS) and Trichrome stains (Wistar Institute, Philadelphia, Pa.). All 3 stained sections are used by the pathologist for scoring purposes. All histological scoring is performed blinded and by an independent board certified veterinary medical pathologist (Julie Engiles, VMD, DACVP). Multiple stains are used to determine score values. Images in FIG. 39 show worst affected area of section selected blindly by the pathologist.
Kidney IC-GN Scoring Method (Smith, Dong et al. 2007):
1. Glomerular cellularity—Score 1-5: Null, low, moderate, high, severe
2. Glomerular necrosis—Score 1-5: Null, low, moderate, high, severe
3. Glomerulosclerosis—Score 1-5: Null, low, moderate, high, severe
4. Interstitial infiltration—Score 1-5: Null, low, moderate, high, severe
5. Tubular atrophy—Score 1-5: Null, low, moderate, high, severe
6. Interstitial fibrosis—Score 1-5: Null, low, moderate, high, severe
7. Vasculitis—Score 1-5: Null, low, moderate, high, severe
Specific Pathologist Definitions: • Necrosis is defined by the presence of nuclear debris/pyknosis within the glomerular tuft indicative of “necrosis.” In many samples, this is a very mild, rare finding within only a very few segments of the glomerular tuft. Also consider effacement of the glomerular tuft by PAS positive, Trichrome negative material necrosis. • Glomerular sclerosis is defined by increased fibroplasia or fibrosis within the glomerular tuft or capsule. […] Most of the vascular changes are mild and could be considered “arteriosclerosis” characterized by proliferation of the smooth muscle cells, and hyalinization of the extracellular matrix. This change may reflect hypertension secondary to glomerular pathology. In very few animals is there overt “vasculitis.” Most inflammatory changes are within the walls of the blood vessels, with little to no damage to the endothelium, and no overt hemorrhage/fibrin leakage. Many also have perivascular rims of fibroblasts.

MRL/lpr mice = assay: Antibody secreting B-cell Elispot (anti-Smith Ag, anti-dsDNA, anti-chromatin ASC), spleens of MRL/lpr mice
Procedure: FIG. 9 depicts frequency of anti-Smith antigen and anti-dsDNA antibody secreting cells in the spleens of MRL/lpr mice. MRL/lpr treated mice spleens were processed for splenocytes for ex vivo Elispot assays. Elispot wells were coated with 10 μg/mL of smith antigen, dsDNA or ovalbumin protein. Fresh, whole splenocytes were added to each well at 500,000 cells per well in cell culture medium. Cells were incubated overnight at 37° C. Developed wells provided spots that were counted as frequency of ASCs per million splenocytes.
FIG. 10 depicts the frequency of anti-chromatin antibody secreting cells in the spleens of MRL/lpr mice. MRL/lpr treated mice spleens were processed for splenocytes for ex vivo Elispot assays. Elispot wells were coated with 10 μg/mL of boiled chicken chromatin or ovalbumin protein. Fresh, whole splenocytes were added to each well at […] cells per well in cell culture medium. Cells were incubated overnight at 37° C. Developed wells provided spots that were counted as frequency of ASCs per million splenocytes.
B-cell Elispot components are ordered from MabTech (Nacka Strand, Sweden) and nitrocellulose IP filter plates are ordered from Millipore (Billerica, Mass.). Elispot wells are coated with either purified bovine thymus dsDNA (Sigma), purified bovine Smith antigen (GenWay) or boiled filtered purified chicken chromatin from lysed chicken red blood cells (Rockland, Gilbertsville, Pa.) at 10 μg/mL. Spleens are processed using glass homogenization, filtered through a 60 μm sterile cell strainer and red blood cells (RBCs) lysed using BioLegend (San Diego, Calif.) lysis buffer. Processed splenocytes are added to each well in culture medium. To avoid skewing of true ex vivo frequencies of antibody secreting cell types (ASCs), cells are not stimulated with a polyclonal mitogen like LPS, but rather incubated in media alone to allow monitoring of genuine ex vivo antibody release. Anti-mouse pan-IgG is used as a positive control for total IgG producing ASCs and is used to normalize results. Frequencies for each antigen are identified in an initial test phase for each model. For chromatin and total IgG only, 30,000 splenocytes are added to each well; for Smith antigen and dsDNA, 500,000 cells are added to each well. Different numbers of splenocytes are added for different antigens due to saturation limits of spot frequencies per well. These limits are previously established. B-cell Elispots are incubated overnight at 37° C. To develop each assay, secondary antibody is added to each well, incubated, washed and alkaline phosphatase strepavidin is used as the conjugate; substrate used is BCIP-NBT. Plates are developed until spots are visible. All Elispot analyses are performed using an Immunospot C.T.L. scanner and Biospot software (Cellular Technology Ltd., Shaker Heights, Ohio). Results are shown as values from which media and cells only wells are subtracted. Some values are negative due to high background.

NZM mice [2] = assay: Urinalysis: total urine protein (proteinuria), NZM mice (Example 2)
[3] = COMPOUND A once and twice weekly

## CC(C)C[C@H](NC(=O)[C@@H](NC(=O)c1cccc(-c2ccccc2)n1)[C@@H](C)O)B(O)O [COMPOUND A, [(1R)-1-[[(2S,3R)-3-hydroxy-2-[6-phenyl-pyridine-2-carbonyl)amino]-1-oxobutyl]amino]-3-methylbutylboronic acid]
NZM mice [1]; [3]
  glomerular cellularity reduction vs vehicle: ~50%
  glomerulosclerosis reduction vs vehicle: ~53%
  interstitial fibrosis reduction vs vehicle: ~55%
  interstitial infiltration reduction vs vehicle: 43-46%
  tubular atrophy reduction vs vehicle: 55-59%
  vasculitis reduction vs vehicle: 51-55%
NZM mice [1]; G1 3 mg/kg ip, 1× wk
  Kidney glomerular cellularity, percent change vs vehicle: −48%
  Kidney glomerular necrosis, percent change vs vehicle: −29%
  Kidney glomerulosclerosis, percent change vs vehicle: −54%
  Kidney interstitial fibrosis, percent change vs vehicle: −56%
  Kidney interstitial infiltration, percent change vs vehicle: −46%
  Kidney tubular atrophy, percent change vs vehicle: −59%
  Kidney vasculitis, percent change vs vehicle: −55%
NZM mice [1]; G2 3 mg/kg ip, 2× wk
  Kidney glomerular cellularity, percent change vs vehicle: −50%
  Kidney glomerular necrosis, percent change vs vehicle: −29%
  Kidney glomerulosclerosis, percent change vs vehicle: −53%
  Kidney interstitial fibrosis, percent change vs vehicle: −55%
  Kidney interstitial infiltration, percent change vs vehicle: −43%
  Kidney tubular atrophy, percent change vs vehicle: −55%
  Kidney vasculitis, percent change vs vehicle: −51%
NZM mice [1]; mouse, in vivo
  decrease in renal histopathology score over several parameters vs vehicle: 45-55%
MRL/lpr mice; G1: 3 mg/kg iv, 1× wk
  ASC EOS Smith Ag, percent change vs vehicle: −97%
  ASC EOS chromatin, percent change vs vehicle: −89%
  ASC EOS dsDNA, percent change vs vehicle: −80%
MRL/lpr mice; G2: 3 mg/kg iv, 2× wk
  ASC EOS Smith Ag, percent change vs vehicle: −110%
  ASC EOS chromatin, percent change vs vehicle: −98%
  ASC EOS dsDNA, percent change vs vehicle: −84%
MRL/lpr mice; G3: 10 mg/kg po, 2× wk
  ASC EOS Smith Ag, percent change vs vehicle: −86%
  ASC EOS chromatin, percent change vs vehicle: −79%
  ASC EOS dsDNA, percent change vs vehicle: −82%
MRL/lpr mice; Group 1
  anti-Smith Ag IgG ASC frequency decrease vs vehicle: 97%
  anti-dsDNA IgG ASC frequency decrease vs vehicle: 80%
MRL/lpr mice; Group 2
  anti-Smith Ag IgG ASC frequency decrease vs vehicle: 100%
  anti-dsDNA IgG ASC frequency decrease vs vehicle: 84%
MRL/lpr mice; Group 3
  anti-Smith Ag IgG ASC frequency decrease vs vehicle: 86%
  anti-dsDNA IgG ASC frequency decrease vs vehicle: 82%
NZM mice [2]; G1 3 mg/kg ip, 1× wk
  Urine proteinuria AUC, percent change vs vehicle: −61%
NZM mice [2]; G2 3 mg/kg ip, 2× wk
  Urine proteinuria AUC, percent change vs vehicle: −72%
NZM mice [2]; Group 1: 3 mg/kg ip once per week
  proteinuria reduction compared to vehicle: 61%
NZM mice [2]; Group 2: 3 mg/kg ip twice weekly
  proteinuria reduction compared to vehicle: 72%
